# Data as given in ChEMBL document CHEMBL1641536, “The identification, and optimisation of hERG selectivity, of a mixed NET/SERT re-uptake inhibitor for the treatment of pain” (Bioorg Med Chem Lett, 2011).
# Tests used:
# [1] = Half life in Wistar rat at 10 mg/kg, po; type: ADME, organism-based; set-up: dose 10 mg/kg, route oral; conditions: in vivo
# Rattus norvegicus = assay: AUC in Wistar rat at 1 mg/kg, iv; type: ADME, organism-based, Plasma; set-up: dose 1 mg/kg, route intravenous; conditions: in vivo
# [2] = Volume of distribution at steady state in Wistar rat at 1 mg/kg, iv; type: ADME, organism-based; set-up: dose 1 mg/kg, route intravenous; conditions: in vivo, read-out: Vdss
# [3] = Oral bioavailability in Wistar rat at 10 mg/kg; type: ADME, organism-based; conditions: in vivo
# [4] = Tmax in Wistar rat at 10 mg/kg, po; type: ADME, organism-based; set-up: dose 10 mg/kg, route oral; conditions: in vivo
structure (smiles),measurement,setting,value
N#Cc1cc(O[C@@H]2C[C@H]3CC[C@@H](C2)N3)cc(-c2ncccc2C#N)c1,half-life,[1],3.2 h
same,AUC,Rattus norvegicus,0.563 µg·h/mL
same,Vd,[2],6.9 L/kg
same,bioavailability,[3],34%
same,Tmax,[4],1.7 h
